IC50 data for 15 molecules are collected here from patent publication US8088815B2, “Spiroindolinone pyrrolidines” (Hoffman-La Roche Inc., priority 2009, dated 2012).

pIC50: −log10 of the molar value.

For this test, the target named is interaction between p53 and MDM2 proteins (Homo sapiens, UniProt Q00987). Description: HTRF assay of inhibition of the p53-MDM2 interaction (GST-MDM2 / biotinylated p53 peptide). In kind it is binding. The conditions noted are these: recombinant GST-tagged MDM2 and biotinylated p53 peptide, bsa:0.02%. In general terms: In TR-FRET formats the signal depends on donor and acceptor labels being close together.
Chain of interaction between p53 and MDM2 proteins (Q00987 whole entry): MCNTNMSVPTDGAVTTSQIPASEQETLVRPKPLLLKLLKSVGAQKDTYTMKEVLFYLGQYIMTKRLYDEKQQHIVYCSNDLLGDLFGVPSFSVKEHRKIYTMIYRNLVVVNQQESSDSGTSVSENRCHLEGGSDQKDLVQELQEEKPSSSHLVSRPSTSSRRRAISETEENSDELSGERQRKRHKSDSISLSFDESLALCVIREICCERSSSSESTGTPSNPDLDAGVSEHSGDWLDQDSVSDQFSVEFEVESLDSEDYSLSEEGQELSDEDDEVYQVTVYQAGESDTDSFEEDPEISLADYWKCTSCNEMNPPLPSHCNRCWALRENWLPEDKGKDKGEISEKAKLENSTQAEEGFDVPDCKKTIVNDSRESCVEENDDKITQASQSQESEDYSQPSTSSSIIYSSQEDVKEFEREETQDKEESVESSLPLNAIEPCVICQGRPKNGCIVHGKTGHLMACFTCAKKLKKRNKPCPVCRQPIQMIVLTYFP

As a reminder, the pIC50 is the negative decadic logarithm of the IC50, by convention in mol/L.

Turning to `CCOC(=O)CNc1ccc(NC(=O)[C@@H]2N[C@@H](CC(C)(C)C)[C@@]3(C(=O)Nc4cc(Cl)ccc43)[C@H]2c2cccc(Cl)c2F)cc1` (racemic) [Example 217, rac-(4-{[(2′S,3′R,4′S,5′R)-6-chloro-4′-(3-chloro-2-fluoro-phenyl)-2′-(2,2-dimethyl-propyl)-2-oxo-1,2-dihydro-spiro[indole-3,3′-pyrrolidine]-5′-carbonyl]-amino}-phenylamino)-acetic acid ethyl ester], the negative logarithm of the IC50 (pIC50) is 7.89. To `COc1cc(C(=O)O)ccc1NC(=O)[C@@H]1N[C@@H](CC(C)(C)C)[C@@]2(C(=O)Nc3cc(Cl)ccc32)[C@H]1c1cccc(Cl)c1F` [Example 111, chiral 4-{[(2′S,3′R,4′S,5′R)-6-chloro-4′-(3-chloro-2-fluoro-phenyl)-2′-(2,2-dimethyl-propyl)-2-oxo-1,2-dihydro-spiro[indole-3,3′-pyrrolidine]-5′-carbonyl]-amino}-3-methoxy-benzoic acid] belongs 8.30.

Take `CC(C)(C)C[C@@H]1N[C@@H](C(=O)Nc2ccc(C#N)cc2)[C@H](c2cccc(Cl)c2F)[C@]12C(=O)Nc1cc(Cl)c(F)cc12` (racemic) [Example 48, rac-(2′S,3′R,4′S,5′R)-6-chloro-4′-(3-chloro-2-fluoro-phenyl)-2′-(2,2-dimethyl-propyl)-5-fluoro-2-oxo-1,2-dihydro-spiro[indole-3,3′-pyrrolidine]-5′-carboxylic acid (4-cyano-phenyl)-amide]: the pIC50 is 7.80. As for `CC(C)(C)C[C@@H]1N[C@@H](C(=O)Nc2ccc(C(N)=O)c(Cl)c2)[C@H](c2cccc(Cl)c2F)[C@]12C(=O)Nc1cc(Cl)ccc12` [Example 26, chiral (2′S,3′R,4′S,5′R)-6-chloro-4′-(3-chloro-2-fluoro-phenyl)-2′-(2,2-dimethyl-propyl)-2-oxo-1,2-dihydro-spiro[indole-3,3′-pyrrolidine]-5′-carboxylic acid (4-carbamoyl-3-chloro-phenyl)-amide], the negative-log IC50 (pIC50) was 8.22. As for `CC(C)(CO)C[C@@H]1N[C@@H](C(=O)Nc2ccc(C#N)cc2)[C@H](c2cccc(Cl)c2F)[C@]12C(=O)Nc1cc(Cl)ccc12` (racemic) [Example 105, rac-(2′S,3′R,4′S,5′R)-6-chloro-4′-(3-chloro-2-fluoro-phenyl)-2′-(3-hydroxy-2,2-dimethyl-propyl)-2-oxo-1,2-dihydro-spiro[indole-3,3′-pyrrolidine]-5′-carboxylic acid (4-cyano-phenyl)-amide], the negative logarithm of the IC50 (pIC50) was 7.89.

`CC(C)(C)C[C@@H]1N[C@@H](C(=O)Nc2ccc(CCC(N)=O)cc2)[C@H](c2cccc(Cl)c2F)[C@]12C(=O)Nc1cc(Cl)ccc12` (racemic) [Example 211, rac-(2′S,3′R,4′S,5′R)-6-chloro-4′-(3-chloro-2-fluoro-phenyl)-2′-(2,2-dimethyl-propyl)-2-oxo-1,2-dihydro-spiro[indole-3,3′-pyrrolidine]-5′-carboxylic acid [4-(2-carbamoyl-ethyl)-phenyl]-amide]: the negative logarithm of the IC50 (pIC50) is 7.82. As for `CC(C)(C)C[C@@H]1N[C@@H](C(=O)Nc2ccc(OCC(=O)O)cc2)[C@H](c2cccc(Cl)c2F)[C@]12C(=O)Nc1cc(Cl)ccc12` (racemic) [Example 206, rac-(4-{[(2′S,3′R,4′S,5′R)-6-chloro-4′-(3-chloro-2-fluoro-phenyl)-2′-(2,2-dimethyl-propyl)-2-oxo-1,2-dihydro-spiro[indole-3,3′-pyrrolidine]-5′-carbonyl]amino}-phenoxy)-acetic acid], the figure is 8.22.

Consider `CC(C)(CO)C[C@@H]1N[C@@H](C(=O)Nc2ccc(C(N)=O)cc2)[C@H](c2cccc(Cl)c2F)[C@]12C(=O)Nc1cc(Cl)ccc12` (racemic) [Example 106, rac-(2′S,3′R,4′S,5′R)-6-chloro-4′-(3-chloro-2-fluoro-phenyl)-2′-(3-hydroxy-2,2-dimethyl-propyl)-2-oxo-1,2-dihydro-spiro[indole-3,3′-pyrrolidine]-5′-carboxylic acid (4-carbamoyl-phenyl)-amide], for which the pIC50 was 8.05. As for “rac-4-{[(2′S,3′R,4′R,5′R)-6-chloro-4′-(3-chloro-4-fluoro-phenyl)-2′-(2,2-dimethyl-propyl)-2-oxo-1,2-dihydro-spiro[indole-3,3′-pyrrolidine]-5′-carbonyl]-amino}-3-methoxy-benzoic acid [Example 127]”, the figure is 7.92. To `CC(C)(C)C[C@@H]1N[C@@H](C(=O)Nc2ccc(C(N)=O)cc2)[C@H](c2cc(F)cc(Cl)c2)[C@]12C(=O)Nc1cc(Cl)ccc12` (racemic) [Example 89] belongs 7.89. To `COc1cc(C#N)ccc1NC(=O)[C@@H]1N[C@@H](CC(C)(C)C)[C@@]2(C(=O)Nc3cc(Cl)ccc32)[C@H]1c1cccc(Cl)c1` (racemic) [Example 66, rac-(2′S,3′R,4′R,5′R)-6-chloro-4′-(3-chloro-phenyl)-2′-(2,2-dimethyl-propyl)-2-oxo-1,2-dihydro-spiro[indole-3,3′-pyrrolidine]-5′-carboxylic acid (4-cyano-2-methoxy-phenyl)-amide] belongs 7.85; to `COC(=O)c1ccc(NC(=O)[C@@H]2N[C@@H](CC(C)(C)C)[C@@]3(C(=O)Nc4cc(Cl)ccc43)[C@H]2c2cccc(Cl)c2F)s1` (racemic) [Example 14, rac-5-{[(2′S,3′R,4′S,5′R)-6-chloro-4′-(3-chloro-2-fluoro-phenyl)-2′-(2,2-dimethyl-propyl)-2-oxo-1,2-dihydro-spiro[indole-3,3′-pyrrolidine]-5′-carbonyl]amino}-thiophene-2-carboxylic acid methyl ester], 7.66. On to `COc1cc(NC(=O)[C@@H]2N[C@@H](CC(C)(C)C)[C@@]3(C(=O)Nc4cc(Cl)ccc43)[C@H]2c2cccc(Cl)c2F)ccc1C(N)=O` [Example 23, chiral (2′S,3′R,4′S,5′R)-6-chloro-4′-(3-chloro-2-fluoro-phenyl)-2′-(2,2-dimethyl-propyl)-2-oxo-1,2-dihydro-spiro[indole-3,3′-pyrrolidine]-5′-carboxylic acid (4-carbamoyl-3-methoxy-phenyl)-amide], for which the pIC50 is 8.30.

On to `Cn1cccc1NC(=O)[C@@H]1N[C@@H](CC(C)(C)C)[C@@]2(C(=O)Nc3cc(Cl)ccc32)[C@H]1c1cccc(Cl)c1F` (racemic) [Example 195, rac-(2′S,3′R,4′S,5′R)-6-chloro-4′-(3-chloro-2-fluoro-phenyl)-2′-(2,2-dimethyl-propyl)-2-oxo-1,2-dihydro-spiro[indole-3,3′-pyrrolidine]-5′-carboxylic acid (1-methyl-1H-pyrrol-2-yl)-amide], for which the pIC50 was 7.82. As for `COc1cc(S(=O)(=O)N2CCOCC2)ccc1NC(=O)[C@@H]1N[C@@H](CC(C)(C)C)[C@@]2(C(=O)Nc3cc(Cl)ccc32)[C@H]1c1cccc(Cl)c1F` (racemic) [Example 138, rac-(2′S,3′R,4′S,5′R)-6-chloro-4′-(3-chloro-2-fluoro-phenyl)-2′-(2,2-dimethyl-propyl)-2-oxo-1,2-dihydro-spiro[indole-3,3′-pyrrolidine]-5′-carboxylic acid [2-methoxy-4-(morpholine-4-sulfonyl)-phenyl]-amide], the figure is 7.89.
